This is an account of results in patent publication US20060025419A1, “Imidazoquinoxaline compound for the treatment of melanoma” (priority 2004, published 2006).

The nature of data set [1]: BMS-345541 levels in mouse serum and tumor tissues after oral dose. Format: in vivo, mice. How it is done: FIGS. 1A-1E. […] After 72 h treatment, cells were photographed. […] 2×10^6 SK-Mel-5 melanoma cells were subcutaneously inoculated into nude mice (n=5 mice per group). […] Tumor size was measured using an electronic digital caliper at intervals of 4 days. Tumor volume was calculated and statistically analyzed. Data shown are representative of two independent experiments. […] BMS-345541 levels in serum (μM, left axis) and tumor tissues (nmoles per gram tumor protein, right axes) were determined at the indicated time points.
Tumor tissue levels of drug were 3.2±0.97, 12.5±3.28 and 28.1±2.65 nmoles per gram tissue protein for the three treatment groups, respectively.

The target in data set [2] is T1, IKK (Homo sapiens, UniProt O14920+O15111).
T1 construct: Equal aliquots of cytoplasmic IKK proteins were immunoprecipitated with anti-IKKα/β antibodies; endogenous in cells; host or cells: SK-Mel-5 human melanoma cells, cytoplasmic extract, immunoprecipitated on Protein A/G agarose beads
T1 sequence (O14920 whole entry): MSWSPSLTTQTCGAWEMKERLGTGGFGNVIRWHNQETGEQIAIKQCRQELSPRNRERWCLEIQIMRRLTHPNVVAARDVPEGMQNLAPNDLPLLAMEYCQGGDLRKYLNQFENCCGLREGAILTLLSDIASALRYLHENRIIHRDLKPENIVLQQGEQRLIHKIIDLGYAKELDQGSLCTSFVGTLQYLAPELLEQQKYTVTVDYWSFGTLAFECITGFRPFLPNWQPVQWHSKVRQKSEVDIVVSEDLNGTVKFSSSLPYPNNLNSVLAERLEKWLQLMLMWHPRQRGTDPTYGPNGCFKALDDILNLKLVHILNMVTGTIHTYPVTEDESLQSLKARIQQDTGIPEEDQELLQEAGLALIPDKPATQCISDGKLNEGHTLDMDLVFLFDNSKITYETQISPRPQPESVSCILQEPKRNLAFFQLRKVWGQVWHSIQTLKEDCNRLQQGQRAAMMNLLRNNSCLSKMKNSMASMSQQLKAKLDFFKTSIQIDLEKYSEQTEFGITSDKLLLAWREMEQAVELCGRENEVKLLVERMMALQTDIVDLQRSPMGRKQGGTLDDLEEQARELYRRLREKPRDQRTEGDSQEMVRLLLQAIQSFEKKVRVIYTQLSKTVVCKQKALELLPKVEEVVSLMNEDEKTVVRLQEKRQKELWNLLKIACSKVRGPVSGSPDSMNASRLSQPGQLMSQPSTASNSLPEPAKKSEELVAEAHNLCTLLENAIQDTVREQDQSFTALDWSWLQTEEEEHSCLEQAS
T1 sequence (O15111 whole entry): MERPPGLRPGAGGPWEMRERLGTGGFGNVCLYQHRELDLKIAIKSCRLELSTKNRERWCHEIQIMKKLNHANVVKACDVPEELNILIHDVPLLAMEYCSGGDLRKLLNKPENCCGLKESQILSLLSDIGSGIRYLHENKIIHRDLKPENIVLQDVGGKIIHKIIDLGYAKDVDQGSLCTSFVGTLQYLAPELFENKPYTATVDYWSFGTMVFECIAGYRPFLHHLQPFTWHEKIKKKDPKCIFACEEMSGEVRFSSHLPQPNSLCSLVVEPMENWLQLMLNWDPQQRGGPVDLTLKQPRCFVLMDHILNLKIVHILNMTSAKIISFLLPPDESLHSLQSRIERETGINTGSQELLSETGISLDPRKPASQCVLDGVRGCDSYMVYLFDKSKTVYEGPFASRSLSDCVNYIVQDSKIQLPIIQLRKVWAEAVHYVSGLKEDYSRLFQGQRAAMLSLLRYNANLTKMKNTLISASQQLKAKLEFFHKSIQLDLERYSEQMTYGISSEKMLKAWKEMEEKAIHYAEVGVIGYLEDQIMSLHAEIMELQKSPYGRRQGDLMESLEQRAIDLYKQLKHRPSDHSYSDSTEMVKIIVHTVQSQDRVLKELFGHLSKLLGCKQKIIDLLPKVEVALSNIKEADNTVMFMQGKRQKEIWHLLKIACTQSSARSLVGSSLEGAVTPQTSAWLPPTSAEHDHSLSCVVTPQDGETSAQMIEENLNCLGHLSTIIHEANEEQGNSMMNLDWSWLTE
T1 sequence (Q9Y6K9 whole entry partner): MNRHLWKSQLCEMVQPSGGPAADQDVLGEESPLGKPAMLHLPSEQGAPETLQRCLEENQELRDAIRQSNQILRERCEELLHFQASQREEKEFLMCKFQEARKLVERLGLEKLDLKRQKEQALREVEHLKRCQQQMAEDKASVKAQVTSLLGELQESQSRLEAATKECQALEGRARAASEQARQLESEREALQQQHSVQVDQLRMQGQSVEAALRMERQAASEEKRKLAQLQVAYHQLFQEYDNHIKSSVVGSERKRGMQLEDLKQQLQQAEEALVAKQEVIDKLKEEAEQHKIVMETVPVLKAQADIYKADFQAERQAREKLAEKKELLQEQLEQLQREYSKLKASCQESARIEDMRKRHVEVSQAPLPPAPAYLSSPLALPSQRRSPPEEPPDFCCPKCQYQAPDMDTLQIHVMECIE
In words: Cell-free IKK kinase assay with washing (reversibility). Format: biochemical. The conditions noted are these: immunopurified IKK, 10 μM, 20 min, washed three times.
Description: To analyze the IKK activity, cytoplasmic extracts were prepared from cells cultured for 24 h in serum-free medium. Cells were mechanically released from tissue culture plates by scraping in cold PBS according to standard protocols. Cells were collected by centrifugation (800×g), and then resuspended in lysis buffer [10 mM HEPES (pH 7.9), 10 mM KCl, 0.1 mM EDTA, 0.1 mM EGTA, 0.1% NP40, 1 mM DTT, and 0.5 mM phenylmethylsulfonyl fluoride] with Complete Protein Inhibitors (Roche). 400 μg aliquots of cytoplasmic extracts were incubated with 1 μg each of IKKα and IKKβ polyclonal antibodies (Santa Cruz Biotechnology) and 60 μg aliquots of Protein A/G agarose-conjugated beads for 4 h at 4° C. […] The reaction mixtures were resolved by SDS-PAGE, transferred to nitrocellulose membrane, and phosphorylated IκB was detected by autoradiography.
Equal aliquots of cytoplasmic IKK proteins were immunoprecipitated with anti-IKKα/β antibodies and IKK activity was determined in an in vitro kinase assay using recombinant IκBα protein as a substrate for IκB kinase. The IKK activity was determined by autoradiography.

Data set [3] concerns CXCL1. Kind of data set: CXCL1 ELISA of serum of mice bearing melanoma tumors. It counts as in vivo. How it is done: FIGS. 2A-2D. […] SK-Mel-5 cells were plated in 6-well plates (1.5×10^5 cells per well) and then cotransfected with 1 μg of HIV long terminal repeat NF-κB-luciferase vector and β-galactosidase vector DNA using Lipofectamine Plus reagent. Twenty-four hours after transfection, cells in duplicate plates were treated with 0, 0.1, 1 and 10 μM of BMS-345541in DMSO and incubated for an additional 36 h. Cell extract was prepared and luciferase activity was detected. Luciferase activity was normalized to β-galactosidase activity. […] ATP. The [γ-^32P]-labeled IκBα protein was visualized by autoradiography. […] The supernatants from B were cleared by centrifugation, or (FIG. 2D) sera were collected from mice, and subjected to ELISA assay for CXCL1 according to the manufacture's protocol. Data shown are from a representative data set from two experiments performed in duplicate (total n=4 for each point). For ELISA; the mean value is representative of serum samples from five mice.
To quantify the CXCL1 expression levels in vivo and in vitro, serum was collected at the end of the experiments from mice bearing SK-Mel-5 melanoma tumors or from the cleared supernatants of melanoma cell culture medium. Briefly, 1.5×10^5 of SK-Mel-5 cells/well were seeded in six-well plates in duplicate in DMEM/F12 medium containing 10% FBS.
Background: An ELISA detects its analyte on a solid surface through an enzyme-linked reagent.

Data set [4] relates to SK-Mel-5 cells. In words: Electron microscopy of cultured melanoma cells. It counts as cell-based, human. The conditions noted are these: 10 μM, 24 h.
In data set [5] the test system is mitochondria isolated from SK-Mel-5. In words: Cytochrome-c release from isolated mitochondria. Also on record: species or system human. The conditions noted are these: 10 μM, 4° C., 30 min. How it is done:
FIGS. 5A-5E. […] (FIG. 5A) Redistribution of Bcl-2 and Bax in mitochondria. […] Subcellular mitochondria and cytoplasm were prepared and subjected to Western blot analysis for Bcl-2 and Bax. (FIG. 5B) Dissipation of mitochondrial Δψm. […] After exposure, mitochondria were isolated and incubated with 80 μM 3,3′dihexyloxacarbocyanine iodide (DiOC6) at 37° C. for 15 min. Δψm was determined by FACS analysis using 484/530 nm filters within 10 min while gating the forward and sideward scatters on intact mitochondria (FIG. 5C). (FIG. 5D) Release of cytochrome-C and AIF. […] Subcellular extracts were prepared and subjected to Western blot analysis for cytochrome-C and AIF. […] The supernatant was assessed for cytochrome-c release. […]
The Mitochondria Isolation Kit (Pierce, Rockford, Ill.) was used for isolation of mitochondria from cultured melanoma cells according to the manufacture's instruction for the Reagent-based method. […] The purity of mitochondria was determined by Western blotting with β-actin, where β-actin negative preparation were fully to be pure. […]
Mitochondria play a crucial role in the regulation of programmed cell death (Zamzami et al., 1995a; 1995b; 1996a; 1996b). […] To investigate alteration of the apoptotic proteins in mitochondria during BMS-345541-induced apoptosis, the ratio of Bcl-2 and Bax distributed in mitochondria was analyzed in SK-Mel-5 cells using Western blot. […]

For the compound `Cc1ccc2nc(NCCN)c3ncc(C)n3c2c1.Cl` [BMS-345541, 4(2′-aminoethyl)amino-1,8-dimethylimidazo(1,2-a)quinoxaline], the “concentration in tumor tissues” value in data set [1] (75 mg/kg oral, 1.5 h (FIG. 1E)) is 19±2.5 nmoles/g tissue protein; in data set [1] (75 mg/kg oral, 3 h (FIG. 1E)) it was 44±1.5 nmoles/g tissue protein; in data set [1] (75 mg/kg oral, 5 h (FIG. 1E)), 30±1.0 nmoles/g tissue protein; in data set [1] (75 mg/kg oral, 8 h (FIG. 1E)), 29±2.5 nmoles/g tissue protein; in data set [1] (75 mg/kg oral, 24 h (FIG. 1E)) it was 11±0.83 nmoles/g tissue protein. Further, the results for the tumor tissue level in data set [1] (8 h after oral dose of 10 mg/kg), in data set [1] (8 h after oral dose of 25 mg/kg) and in data set [1] (8 h after oral dose of 75 mg/kg (dose series)) were 3.2±0.97 nmoles per gram tissue protein, 12.5±3.28 nmoles per gram tissue protein and 28.1±2.65 nmoles per gram tissue protein, respectively. The compound further showed a concentration at 1.5 h in data set [1] (nude, mouse, serum, 75 mg/kg oral, 1.5 h (FIG. 1E)) of 6.6 ± 0.31 µM. Besides, the concentration at 3 h in data set [1] (nude, mouse, serum, 75 mg/kg oral, 3 h (FIG. 1E)) is 18 ± 1.3 µM. The compound also gave a concentration at 5 h in data set [1] (nude, mouse, serum, 75 mg/kg oral, 5 h (FIG. 1E)) of 5.2 ± 0.19 µM. Moreover, the concentration at 8 h turned out to be 4.1 ± 0.22 µM in data set [1] (nude, mouse, serum, 75 mg/kg oral, 8 h (FIG. 1E)); 0.9 ± 0.25 µM in data set [1] (nude, mouse, serum, 8 h after oral dose of 10 mg/kg); 3.1 ± 1.1 µM in data set [1] (nude, mouse, serum, 8 h after oral dose of 25 mg/kg); 8.2 ± 1.1 µM in data set [1] (nude, mouse, serum, 8 h after oral dose of 75 mg/kg (dose series)). Further, the concentration at 24 h in data set [1] (nude, mouse, serum, 75 mg/kg oral, 24 h (FIG. 1E)) came out at 1.1 ± 0.065 µM. Besides, the “reversibility of IKK inhibition by washing” value in data set [2] is “reversed after the washing steps”. The “CXCL1 expression in mouse sera” value in data set [3] is reported as “suppressed in a concentration-dependent manner”. Besides, in data set [4], the “morphology under electron microscopy” value is “typical feature of apoptosis”. Further, the “direct action on isolated mitochondria (cytochrome-c release into supernatant)” value in data set [5] is on record as “no direct action”.
